From patent US7074789B2, “Kinase inhibitors” (Amgen Inc., priority 1999, dated 2006)
Read-outs that look alike come from different tables or passages of the source.

Legend:
Format in all cases: biochemical
Lck = target: T1, Lck (Homo sapiens, UniProt P06239); experiment: Kinase inhibition assay (33P transfer), Lck; conditions: read-out: Lck-1
T1 construct: Kinases are expressed as either kinase domains or full length constructs; made in house
Method in brief: (§1)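 Liquid scintillation counting of 33P on plate-bound synthetic substrates gives kinase activity. Plates are washed in 0.5% phosphoric acid first; kinases are tagged recombinant proteins from E. coli or baculovirus-infected High Five cells.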

Zap-70 = target: T2, Zap-70 (Homo sapiens, UniProt P43403); experiment: Kinase inhibition assay (33P transfer), Zap-70; conditions: read-out: Zap-1
T2 construct: Kinases are expressed as either kinase domains or full length constructs; made in house
T2 sequence (P43403 1-619): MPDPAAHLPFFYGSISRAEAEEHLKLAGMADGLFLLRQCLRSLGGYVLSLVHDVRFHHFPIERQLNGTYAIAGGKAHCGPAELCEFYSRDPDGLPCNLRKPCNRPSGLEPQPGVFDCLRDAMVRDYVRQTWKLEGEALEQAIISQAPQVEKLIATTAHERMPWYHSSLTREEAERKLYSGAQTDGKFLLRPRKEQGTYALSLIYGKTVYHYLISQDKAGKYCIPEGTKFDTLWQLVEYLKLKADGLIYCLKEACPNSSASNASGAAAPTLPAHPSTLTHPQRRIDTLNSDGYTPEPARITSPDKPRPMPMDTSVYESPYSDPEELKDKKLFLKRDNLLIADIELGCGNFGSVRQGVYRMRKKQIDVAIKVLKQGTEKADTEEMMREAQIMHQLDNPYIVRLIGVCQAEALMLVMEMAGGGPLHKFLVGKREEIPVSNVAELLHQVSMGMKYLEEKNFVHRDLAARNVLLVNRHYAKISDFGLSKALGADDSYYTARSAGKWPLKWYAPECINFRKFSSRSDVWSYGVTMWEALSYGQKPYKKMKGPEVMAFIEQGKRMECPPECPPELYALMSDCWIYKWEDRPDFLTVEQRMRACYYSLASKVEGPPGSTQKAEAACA
Method in brief: as §1

Itk = target: T3, Itk (Homo sapiens, UniProt Q08881); experiment: Kinase inhibition assay (33P transfer), Itk; conditions: read-out: Itk-1
T3 construct: Kinases are expressed as either kinase domains or full length constructs; made in house
T3 sequence (Q08881 1-620): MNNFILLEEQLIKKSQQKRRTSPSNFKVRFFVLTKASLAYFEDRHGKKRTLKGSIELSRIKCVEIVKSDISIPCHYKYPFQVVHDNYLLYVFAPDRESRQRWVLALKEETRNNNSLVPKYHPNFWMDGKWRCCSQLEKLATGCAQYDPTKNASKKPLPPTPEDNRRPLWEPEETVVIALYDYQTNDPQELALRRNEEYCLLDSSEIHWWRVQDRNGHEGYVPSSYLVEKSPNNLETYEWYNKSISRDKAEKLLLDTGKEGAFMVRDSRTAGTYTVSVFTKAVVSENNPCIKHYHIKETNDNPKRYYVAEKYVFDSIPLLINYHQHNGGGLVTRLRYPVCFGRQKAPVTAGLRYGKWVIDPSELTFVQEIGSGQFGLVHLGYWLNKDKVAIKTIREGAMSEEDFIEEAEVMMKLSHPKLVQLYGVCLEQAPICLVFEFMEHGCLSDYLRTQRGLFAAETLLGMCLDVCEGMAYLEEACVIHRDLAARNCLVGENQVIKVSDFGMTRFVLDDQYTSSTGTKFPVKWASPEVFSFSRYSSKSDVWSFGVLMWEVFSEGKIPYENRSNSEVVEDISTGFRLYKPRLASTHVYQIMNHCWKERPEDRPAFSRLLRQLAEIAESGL
Method in brief: (§2)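 Steps: coat wells with poly(Glu,Tyr) 4:1 or poly(Arg,Ser) 3:1; add purified kinase, [33P]ATP and inhibitor; incubate; wash with 0.5% phosphoric acid; add liquid scintillant; count. IC50 corresponds to half-maximal reduction of bound 33P.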

EGFR = target: T4, EGFR (Homo sapiens, UniProt P00533); experiment: Kinase inhibition assay (33P transfer), EGFR; conditions: Table 2, kinase inhibition class; read-out: EGFR-1
T4 construct: Kinases are expressed as either kinase domains or full length constructs; made in house
Method in brief: as §2

Kdr = target: T5, Kdr (Homo sapiens, UniProt P35968); experiment: Kinase inhibition assay (33P transfer), Kdr; conditions: read-out: KDR-1
T5 construct: Kinases are expressed as either kinase domains or full length constructs; made in house
Method in brief: as §1

Tek = target: T6, Tek (Homo sapiens, UniProt Q02763); experiment: Kinase inhibition assay (33P transfer), Tek; conditions: read-out: Tek-1
T6 construct: Kinases are expressed as either kinase domains or full length constructs; made in house
T6 sequence (Q02763 23-1124, species assumed): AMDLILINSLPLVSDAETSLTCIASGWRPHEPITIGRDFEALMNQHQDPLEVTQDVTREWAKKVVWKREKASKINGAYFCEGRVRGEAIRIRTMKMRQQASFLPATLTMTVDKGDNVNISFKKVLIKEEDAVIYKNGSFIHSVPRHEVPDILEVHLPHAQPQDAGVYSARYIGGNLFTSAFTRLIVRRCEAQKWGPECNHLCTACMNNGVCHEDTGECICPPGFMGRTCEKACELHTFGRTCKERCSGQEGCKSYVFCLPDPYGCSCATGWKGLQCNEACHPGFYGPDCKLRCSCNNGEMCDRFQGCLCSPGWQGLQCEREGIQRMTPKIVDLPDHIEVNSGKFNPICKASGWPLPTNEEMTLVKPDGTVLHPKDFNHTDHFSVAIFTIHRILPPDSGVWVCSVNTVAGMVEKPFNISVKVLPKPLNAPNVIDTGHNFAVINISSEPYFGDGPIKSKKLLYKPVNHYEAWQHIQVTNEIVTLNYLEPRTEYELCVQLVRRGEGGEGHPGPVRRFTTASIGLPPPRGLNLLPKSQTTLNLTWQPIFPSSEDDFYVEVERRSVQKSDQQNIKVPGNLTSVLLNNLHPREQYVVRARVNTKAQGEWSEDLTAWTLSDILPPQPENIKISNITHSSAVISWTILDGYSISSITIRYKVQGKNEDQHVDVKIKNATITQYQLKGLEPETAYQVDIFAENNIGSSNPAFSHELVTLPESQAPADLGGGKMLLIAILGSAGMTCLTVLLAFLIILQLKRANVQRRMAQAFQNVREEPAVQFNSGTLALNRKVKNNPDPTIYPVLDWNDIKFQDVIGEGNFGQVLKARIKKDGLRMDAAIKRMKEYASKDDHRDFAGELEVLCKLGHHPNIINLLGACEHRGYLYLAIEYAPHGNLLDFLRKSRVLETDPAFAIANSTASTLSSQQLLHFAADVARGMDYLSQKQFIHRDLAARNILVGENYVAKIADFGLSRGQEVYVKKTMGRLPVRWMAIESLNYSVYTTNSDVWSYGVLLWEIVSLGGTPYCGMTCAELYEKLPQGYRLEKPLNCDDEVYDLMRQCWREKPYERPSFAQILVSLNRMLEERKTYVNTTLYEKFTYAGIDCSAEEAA
Method in brief: as §2

c-Met = target: T7, c-Met (Homo sapiens, UniProt P08581); experiment: Kinase inhibition assay (33P transfer), c-Met; conditions: Table 2, kinase inhibition class; read-out: Met-1
T7 construct: Kinases are expressed as either kinase domains or full length constructs; made in house
T7 sequence (P08581 25-1390): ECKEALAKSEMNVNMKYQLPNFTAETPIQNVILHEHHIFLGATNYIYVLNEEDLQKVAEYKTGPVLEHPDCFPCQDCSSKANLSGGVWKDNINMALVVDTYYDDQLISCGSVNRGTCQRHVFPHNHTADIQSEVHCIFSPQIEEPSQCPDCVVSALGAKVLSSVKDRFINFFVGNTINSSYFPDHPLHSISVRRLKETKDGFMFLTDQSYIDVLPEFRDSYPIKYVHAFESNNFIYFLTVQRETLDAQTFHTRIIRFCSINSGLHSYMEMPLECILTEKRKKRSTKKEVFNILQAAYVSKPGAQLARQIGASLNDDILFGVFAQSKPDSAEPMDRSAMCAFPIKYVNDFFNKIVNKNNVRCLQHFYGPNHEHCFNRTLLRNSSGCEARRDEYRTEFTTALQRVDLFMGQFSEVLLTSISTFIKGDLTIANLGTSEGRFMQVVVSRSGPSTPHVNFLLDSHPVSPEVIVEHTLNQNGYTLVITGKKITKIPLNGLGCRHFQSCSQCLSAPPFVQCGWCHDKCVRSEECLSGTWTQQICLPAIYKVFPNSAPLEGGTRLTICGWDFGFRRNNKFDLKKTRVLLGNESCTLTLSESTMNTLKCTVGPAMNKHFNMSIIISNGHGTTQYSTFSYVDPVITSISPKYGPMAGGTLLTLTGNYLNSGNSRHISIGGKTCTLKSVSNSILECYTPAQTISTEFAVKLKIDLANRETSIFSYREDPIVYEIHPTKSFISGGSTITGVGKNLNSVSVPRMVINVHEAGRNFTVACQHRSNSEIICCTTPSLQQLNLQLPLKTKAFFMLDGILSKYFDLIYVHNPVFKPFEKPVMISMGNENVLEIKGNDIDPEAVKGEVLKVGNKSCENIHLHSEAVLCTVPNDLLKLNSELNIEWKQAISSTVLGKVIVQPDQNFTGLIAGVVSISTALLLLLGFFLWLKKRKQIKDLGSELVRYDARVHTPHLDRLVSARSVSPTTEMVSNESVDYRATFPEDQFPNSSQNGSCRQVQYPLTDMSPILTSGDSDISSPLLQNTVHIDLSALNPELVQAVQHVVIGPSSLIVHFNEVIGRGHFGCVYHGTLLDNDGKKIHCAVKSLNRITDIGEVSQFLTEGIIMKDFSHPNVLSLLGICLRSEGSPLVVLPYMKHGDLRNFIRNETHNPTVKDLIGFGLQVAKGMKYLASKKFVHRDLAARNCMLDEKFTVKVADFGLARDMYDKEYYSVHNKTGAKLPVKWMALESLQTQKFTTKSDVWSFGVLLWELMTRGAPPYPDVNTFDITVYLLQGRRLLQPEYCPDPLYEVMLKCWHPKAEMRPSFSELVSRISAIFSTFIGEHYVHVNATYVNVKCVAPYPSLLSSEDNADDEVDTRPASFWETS
Method in brief: as §2

AKT = target: T8, AKT (Homo sapiens, UniProt Q9Y243); experiment: Kinase inhibition assay (33P transfer), AKT; conditions: Table 2, kinase inhibition class; read-out: AKT3-1
T8 construct: Kinases are expressed as either kinase domains or full length constructs; made in house
T8 sequence (Q9Y243 whole entry, the tested form may be a part): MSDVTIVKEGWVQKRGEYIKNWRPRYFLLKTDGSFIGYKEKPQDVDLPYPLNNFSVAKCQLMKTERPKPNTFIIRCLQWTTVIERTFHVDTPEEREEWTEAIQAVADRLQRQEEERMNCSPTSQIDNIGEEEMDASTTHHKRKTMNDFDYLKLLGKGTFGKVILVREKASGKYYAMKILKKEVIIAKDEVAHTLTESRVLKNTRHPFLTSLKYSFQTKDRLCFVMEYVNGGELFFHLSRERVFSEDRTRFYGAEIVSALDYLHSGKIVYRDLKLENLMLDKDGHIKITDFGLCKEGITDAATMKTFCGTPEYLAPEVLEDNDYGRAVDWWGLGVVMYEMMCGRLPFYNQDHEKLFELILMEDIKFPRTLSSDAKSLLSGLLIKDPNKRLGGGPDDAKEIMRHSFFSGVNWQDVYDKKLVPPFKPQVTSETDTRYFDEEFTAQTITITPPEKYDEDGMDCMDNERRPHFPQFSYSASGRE
Method in brief: as §1

IGFR-1 [1] = target: T9, IGFR-1 (Homo sapiens, UniProt P08069); experiment: Kinase inhibition assay (33P transfer), IGFR-1; conditions: Table 2, kinase inhibition class
T9 construct: Kinases are expressed as either kinase domains or full length constructs; made in house

ErbB2 = target: T10, ErbB2 (Homo sapiens, UniProt P04626); experiment: Kinase inhibition assay (33P transfer), ErbB2; conditions: read-out: ErbB2-2
T10 construct: Kinases are expressed as either kinase domains or full length constructs; made in house
Method in brief: as §2

IGFR-1 [2] = target: T9, IGFR-1; experiment: Kinase inhibition assay, IGFR-1 (Table 2); conditions: Table 2, kinase inhibition class
PDGFRB = target: T11, PDGFRB (Homo sapiens, UniProt P09619); experiment: Kinase inhibition assay (33P transfer), PDGFRB; conditions: read-out: PDGFRB-1
T11 construct: Kinases are expressed as either kinase domains or full length constructs; made in house
T11 sequence (P09619 33-1106, species assumed): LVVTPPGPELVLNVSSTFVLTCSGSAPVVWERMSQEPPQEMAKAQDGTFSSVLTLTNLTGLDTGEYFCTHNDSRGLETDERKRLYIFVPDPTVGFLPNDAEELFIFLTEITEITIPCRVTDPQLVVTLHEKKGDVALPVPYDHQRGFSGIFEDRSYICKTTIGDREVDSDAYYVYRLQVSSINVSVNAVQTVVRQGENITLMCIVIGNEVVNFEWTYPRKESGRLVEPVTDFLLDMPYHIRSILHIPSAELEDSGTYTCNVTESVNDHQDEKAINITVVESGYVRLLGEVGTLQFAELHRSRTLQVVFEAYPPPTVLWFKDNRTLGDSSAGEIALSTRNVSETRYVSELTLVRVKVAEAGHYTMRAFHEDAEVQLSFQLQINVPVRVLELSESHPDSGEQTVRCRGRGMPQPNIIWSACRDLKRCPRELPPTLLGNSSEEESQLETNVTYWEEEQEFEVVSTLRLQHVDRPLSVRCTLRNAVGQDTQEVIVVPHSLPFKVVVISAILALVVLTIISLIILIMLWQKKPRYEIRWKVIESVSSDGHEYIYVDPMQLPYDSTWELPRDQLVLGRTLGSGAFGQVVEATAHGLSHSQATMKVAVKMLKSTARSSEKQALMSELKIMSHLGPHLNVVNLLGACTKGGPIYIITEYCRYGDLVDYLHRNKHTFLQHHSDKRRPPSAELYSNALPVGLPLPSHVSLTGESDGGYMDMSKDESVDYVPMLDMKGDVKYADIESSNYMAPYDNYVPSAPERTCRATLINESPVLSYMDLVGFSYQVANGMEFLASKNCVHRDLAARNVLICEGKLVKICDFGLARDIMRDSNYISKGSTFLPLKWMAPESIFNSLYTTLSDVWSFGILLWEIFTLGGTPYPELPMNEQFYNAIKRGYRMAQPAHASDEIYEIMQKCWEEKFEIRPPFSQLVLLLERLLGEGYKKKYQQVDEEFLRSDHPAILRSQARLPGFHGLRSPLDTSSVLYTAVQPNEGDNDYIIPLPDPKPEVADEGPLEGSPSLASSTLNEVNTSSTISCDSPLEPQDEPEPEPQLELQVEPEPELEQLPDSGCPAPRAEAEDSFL

T1 sequence (P06239 whole entry, species assumed, the tested form may be a part): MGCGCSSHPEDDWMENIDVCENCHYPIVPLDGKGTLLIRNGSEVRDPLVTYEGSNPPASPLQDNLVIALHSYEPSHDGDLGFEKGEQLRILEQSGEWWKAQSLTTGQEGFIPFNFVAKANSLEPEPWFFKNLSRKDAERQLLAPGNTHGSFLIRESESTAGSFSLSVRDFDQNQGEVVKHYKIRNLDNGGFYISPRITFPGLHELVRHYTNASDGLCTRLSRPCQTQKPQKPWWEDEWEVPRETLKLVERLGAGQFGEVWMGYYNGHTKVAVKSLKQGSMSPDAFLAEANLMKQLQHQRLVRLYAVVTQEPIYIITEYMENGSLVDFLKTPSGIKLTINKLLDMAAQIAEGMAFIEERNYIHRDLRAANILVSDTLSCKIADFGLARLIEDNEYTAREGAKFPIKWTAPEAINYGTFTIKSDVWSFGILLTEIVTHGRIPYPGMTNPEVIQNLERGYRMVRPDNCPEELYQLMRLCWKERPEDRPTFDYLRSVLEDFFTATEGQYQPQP

Row | SMILES | IC50 (Lck; Table 3) [µM] | IC50 (Zap-70; Table 3) [µM] | IC50 (Itk; Table 3) [µM] | IC50 (EGFR) [µM] | IC50 (Kdr; Table 3) [µM] | IC50 (Tek) [µM] | IC50 (c-Met) [µM] | IC50 (AKT) [µM] | IC50 (IGFR-1 [1]) [µM] | IC50 (Lck) [µM] | IC50 (Zap-70) [µM] | IC50 (Itk) [µM] | IC50 (ErbB2) [µM] | IC50 (Kdr) [µM] | IC50 (IGFR-1 [2]) [µM] | IC50 (PDGFRB) [µM]
1 | COc1cc(Nc2ncnc(-n3c(NCC(N)=O)nc4ccccc43)n2)cc(OC)c1OC [Compound 389] | > 9.99 | > 9.99 | > 9.99 | > 9.99 | > 9.99 | > 9.99 | > 9.99 | > 9.99 | < 0.888 |  |  |  |  |  |  | 
2 | Oc1cccc(Nc2ncnc(-c3ccccc3)n2)c1 [Compound 18] | 9.08 to 13.2 | > 17 | > 17 | > 17 | 9.08 to 13.2 | > 17 | > 17 | > 17 | > 17 |  |  |  |  |  |  | 
3 | COc1cc(Nc2ncnc(NC(=O)NCCc3ccccc3)n2)cc(OC)c1OC [Compound 661] |  |  |  | > 10.6 |  |  | > 10.6 | > 10.6 |  | > 10.6 | > 10.6 | > 10.6 | > 10.6 | 0.942 to 5.65 | > 10.6 | > 10.6
4 | COc1cccc(Nc2ncnc(-c3ccccc3)n2)c1 [Compound 13] | > 16.2 | > 16.2 | > 16.2 | > 16.2 | > 16.2 | > 16.2 | > 16.2 | > 16.2 | > 16.2 |  |  |  |  |  |  | 
5 | COc1cc(Nc2ncnc(-c3ccccc3)n2)cc(OC)c1 [Compound 15] | > 14.6 | 11.4 to 14.6 | > 14.6 | > 14.6 | > 14.6 | > 14.6 | > 14.6 | > 14.6 | > 14.6 |  |  |  |  |  |  | 

The next lines start with the values.

Row | IC50 (Lck; Table 3) [µM] | IC50 (Zap-70; Table 3) [µM] | IC50 (Itk; Table 3) [µM] | IC50 (EGFR) [µM] | IC50 (Kdr; Table 3) [µM] | IC50 (Tek) [µM] | IC50 (c-Met) [µM] | IC50 (AKT) [µM] | IC50 (IGFR-1 [1]) [µM] | IC50 (Lck) [µM] | IC50 (Zap-70) [µM] | IC50 (Itk) [µM] | IC50 (ErbB2) [µM] | IC50 (Kdr) [µM] | IC50 (IGFR-1 [2]) [µM] | IC50 (PDGFRB) [µM] | SMILES
6 |  |  |  | 4.56 to 6.65 |  |  | > 8.55 | > 8.55 |  | 0.76 to 4.56 | > 8.55 | > 8.55 | 4.56 to 6.65 | 0.76 to 4.56 | < 0.76 | 0.76 to 4.56 | COc1cc(Nc2ncnc(-n3c(NCc4ccc(N(C)C)cc4)nc4ccccc43)n2)cc(OC)c1OC [Compound 593]
7 |  |  |  | > 8.16 |  |  | > 8.16 | > 8.16 |  | > 8.16 | > 8.16 | > 8.16 | 6.35 to 8.16 | 0.725 to 4.35 | > 8.16 | > 8.16 | COc1cc(Nc2ncnc(-n3c(NCc4ccc(C(F)(F)F)cc4)nc4ccccc43)n2)cc(OC)c1OC [Compound 598]
8 |  |  |  | 0.78 to 4.68 |  |  | > 8.78 | > 8.78 |  | 0.78 to 4.68 | > 8.78 | > 8.78 | 0.78 to 4.68 | 4.68 to 6.83 | > 8.78 | 0.78 to 4.68 | COc1cc(Nc2ncnc(Nc3cc(OC)c(OC)c(OC)c3)n2)ccc1OCCN1CCOCC1 [Compound 601]
9 |  |  |  | 6.83 to 8.78 |  |  | > 8.78 | > 8.78 |  | 0.78 to 4.68 | > 8.78 | > 8.78 | 4.68 to 6.83 | 4.68 to 6.83 | > 8.78 | 0.78 to 4.68 | COc1ccc(Nc2ncnc(Nc3cc(OC)c(OC)c(OC)c3)n2)cc1OCCN1CCOCC1 [Compound 599]
10 |  |  |  | 6.58 to 8.46 |  |  | > 8.46 | 4.51 to 6.58 |  | 0.752 to 4.51 | > 8.46 | > 8.46 | 0.752 to 4.51 | 0.752 to 4.51 | 6.58 to 8.46 | 4.51 to 6.58 | COc1cc(Nc2ncnc(-n3c(NCc4ccc(Cl)cc4C)nc4ccccc43)n2)cc(OC)c1OC [Compound 597]
